As usually defined, the pIC50 is the IC50 on a negative log10 scale, so that one unit is a factor of ten.

These results are taken from patent publication US20240101576A1, “HETEROCYCLIC INHIBITORS OF EGFR AND/OR HER2, FOR USE IN THE TREATMENT OF CANCER” (Scorpion Therapeutics, Inc., priority 2020, published 2024).

Assay type in all cases: cell-based
The target of one assay is T1, EGFR WT (Ba/F3 cells) (Homo sapiens, UniProt P00533).
T1 construct: expressed in transfected cells; host or cells: Ba/F3 (murine pro-B cells), retroviral transduction, puromycin selection, maintained with EGF
T1 sequence (P00533 25-1210): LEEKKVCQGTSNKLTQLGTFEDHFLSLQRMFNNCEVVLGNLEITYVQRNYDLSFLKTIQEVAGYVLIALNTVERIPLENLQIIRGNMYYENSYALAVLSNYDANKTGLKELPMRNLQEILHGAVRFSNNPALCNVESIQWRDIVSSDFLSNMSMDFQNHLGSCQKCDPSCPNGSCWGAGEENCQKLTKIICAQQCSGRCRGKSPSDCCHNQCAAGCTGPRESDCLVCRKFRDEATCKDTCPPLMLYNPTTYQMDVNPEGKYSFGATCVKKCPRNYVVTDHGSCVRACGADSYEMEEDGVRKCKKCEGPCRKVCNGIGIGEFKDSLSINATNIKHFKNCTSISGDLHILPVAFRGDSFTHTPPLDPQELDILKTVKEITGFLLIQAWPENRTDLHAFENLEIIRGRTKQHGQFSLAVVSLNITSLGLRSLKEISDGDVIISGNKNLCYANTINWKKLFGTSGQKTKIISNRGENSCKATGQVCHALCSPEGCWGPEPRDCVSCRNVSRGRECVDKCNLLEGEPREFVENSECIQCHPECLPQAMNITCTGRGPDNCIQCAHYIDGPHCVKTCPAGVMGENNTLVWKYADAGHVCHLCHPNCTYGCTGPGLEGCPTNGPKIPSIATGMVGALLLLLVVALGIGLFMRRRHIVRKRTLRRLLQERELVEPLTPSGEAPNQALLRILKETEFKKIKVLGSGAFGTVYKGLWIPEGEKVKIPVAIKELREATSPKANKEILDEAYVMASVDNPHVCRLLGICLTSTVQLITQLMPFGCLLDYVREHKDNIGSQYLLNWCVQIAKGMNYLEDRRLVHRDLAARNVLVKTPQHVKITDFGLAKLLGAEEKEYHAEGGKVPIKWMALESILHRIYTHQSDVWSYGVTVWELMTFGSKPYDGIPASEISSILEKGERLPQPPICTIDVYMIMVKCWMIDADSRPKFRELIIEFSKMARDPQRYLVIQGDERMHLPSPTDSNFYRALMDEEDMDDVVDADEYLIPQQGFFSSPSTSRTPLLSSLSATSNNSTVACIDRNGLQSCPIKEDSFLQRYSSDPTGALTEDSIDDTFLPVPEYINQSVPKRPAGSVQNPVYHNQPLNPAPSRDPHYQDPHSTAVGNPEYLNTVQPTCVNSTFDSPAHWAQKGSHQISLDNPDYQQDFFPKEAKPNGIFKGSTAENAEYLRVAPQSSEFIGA
Kind of assay: Inhibitor activity on EGFR-dependent cell growth (CellTiter-Glo, 72 h), Ba/F3 EGFR WT. The note with it: read-out: BaF3 WT IC50. A digest of the protocol: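 This growth assay used Ba/F3 cells that depend on wild-type EGFR and are kept in EGF without IL3. Compounds were made up as 10 mM DMSO stocks and diluted 3-fold over 10 points. 120 nL went onto 600 cells/well. After 72 hours, 40 μL CellTiter-Glo was added and luminescence read on EnVision after 30 min.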
(ATP-based viability assays read luminescence as a measure of living cells.)

Assay [1] deals with T2, EGFR exon 20 NPG Ins D770_N771 (Ba/F3 cells) (Homo sapiens, UniProt P00533, INS770NPG).
T2 construct: expressed in transfected cells; host or cells: Ba/F3 (murine pro-B cells), retroviral transduction, puromycin selection, IL3-independent pool
The experiment in a line: Inhibitor activity on EGFR-dependent cell growth (CellTiter-Glo, 72 h), Ba/F3 EGFR exon 20 NPG Ins. Conditions: read-out: BaF3 NPG IC50. Summed up:
(§1)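 IC50s derive from a sigmoidal dose–response fit of CellTiter-Glo signal. The signal was normalised between […]-treated cells and cell-free medium. Ba/F3 mutant-EGFR cells, seeded at 400–800/well depending on the line, had 72 h of exposure to a 10-point, 3-fold compound series.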

The target in assay [2] is T3, EGFR exon 20 FQEA Ins A763_V764 (Ba/F3 cells) (Homo sapiens, UniProt P00533, INS763FQEA).
T3 construct: expressed in transfected cells; host or cells: Ba/F3 (murine pro-B cells), retroviral transduction, puromycin selection, IL3-independent pool
T3 sequence (P00533 with tags, fused parts or gaps INS763FQEA): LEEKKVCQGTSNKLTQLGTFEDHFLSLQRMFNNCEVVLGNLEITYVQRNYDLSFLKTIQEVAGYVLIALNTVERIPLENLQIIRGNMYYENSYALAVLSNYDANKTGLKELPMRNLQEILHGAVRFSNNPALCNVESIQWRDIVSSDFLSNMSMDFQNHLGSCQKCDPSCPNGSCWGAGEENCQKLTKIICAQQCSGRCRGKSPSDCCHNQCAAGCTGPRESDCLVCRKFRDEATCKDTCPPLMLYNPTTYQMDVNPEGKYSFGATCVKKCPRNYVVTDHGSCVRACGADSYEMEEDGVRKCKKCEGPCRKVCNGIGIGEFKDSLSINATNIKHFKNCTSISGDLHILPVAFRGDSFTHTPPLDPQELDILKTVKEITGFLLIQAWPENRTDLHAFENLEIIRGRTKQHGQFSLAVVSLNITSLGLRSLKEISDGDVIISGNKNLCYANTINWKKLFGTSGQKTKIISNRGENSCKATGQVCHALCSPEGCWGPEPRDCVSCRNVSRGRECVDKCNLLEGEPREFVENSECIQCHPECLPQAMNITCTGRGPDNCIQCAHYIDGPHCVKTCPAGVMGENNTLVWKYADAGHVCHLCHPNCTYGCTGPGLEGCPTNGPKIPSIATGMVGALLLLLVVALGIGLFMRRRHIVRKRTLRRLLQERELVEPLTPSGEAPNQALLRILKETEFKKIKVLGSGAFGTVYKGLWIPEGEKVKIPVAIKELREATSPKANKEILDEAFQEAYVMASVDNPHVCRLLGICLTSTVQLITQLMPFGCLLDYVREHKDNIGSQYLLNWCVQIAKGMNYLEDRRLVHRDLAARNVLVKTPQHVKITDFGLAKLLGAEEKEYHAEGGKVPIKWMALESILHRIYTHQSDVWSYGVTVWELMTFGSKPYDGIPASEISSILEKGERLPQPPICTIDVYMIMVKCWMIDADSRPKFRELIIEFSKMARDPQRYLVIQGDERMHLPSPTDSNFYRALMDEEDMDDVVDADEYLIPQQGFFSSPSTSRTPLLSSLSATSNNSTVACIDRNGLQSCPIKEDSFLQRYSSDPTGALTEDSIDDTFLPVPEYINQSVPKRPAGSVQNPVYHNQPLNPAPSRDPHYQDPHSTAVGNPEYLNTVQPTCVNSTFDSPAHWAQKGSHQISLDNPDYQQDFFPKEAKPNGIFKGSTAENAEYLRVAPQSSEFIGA
Kind of assay: Inhibitor activity on EGFR-dependent cell growth (CellTiter-Glo, 72 h), Ba/F3 EGFR exon 20 FQEA Ins. The note with it: read-out: BaF3 FQEA IC50. Summed up:
(§2)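 Steps: seed Ba/F3 EGFR-mutant pools (800 cells/well FQEA and exon 19del; 600 L858R/C797S; 400 L858R). Add 120 nL of serially diluted compound and incubate 72 h. Equilibrate to room temperature, add CellTiter-Glo and read after 30 min. Fit IC50.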

Assay [3] deals with T2, EGFR exon 20 NPG Ins D770_N771 (Ba/F3 cells). Kind of assay: Inhibitor activity on EGFR phosphorylation (pEGFR AlphaLISA, 2 h), Ba/F3 EGFR exon 20 NPG Ins. A digest of the protocol: (§3)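 Compound treated for 2 h in IL3-withdrawn Ba/F3 cells carrying mutant EGFR (50K/well) or CUTO14 (12.5K/well); lysate pEGFR by AlphaLISA gave the IC50.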
For assay [4], the target named is T4, EGFR exon 20 ASV Ins V769_D770 (Ba/F3 cells) (Homo sapiens, UniProt P00533, INS769ASV).
T4 construct: expressed in transfected cells; host or cells: Ba/F3 (murine pro-B cells), retroviral transduction, puromycin selection, IL3-independent pool
T4 sequence (P00533 with tags, fused parts or gaps INS769ASV): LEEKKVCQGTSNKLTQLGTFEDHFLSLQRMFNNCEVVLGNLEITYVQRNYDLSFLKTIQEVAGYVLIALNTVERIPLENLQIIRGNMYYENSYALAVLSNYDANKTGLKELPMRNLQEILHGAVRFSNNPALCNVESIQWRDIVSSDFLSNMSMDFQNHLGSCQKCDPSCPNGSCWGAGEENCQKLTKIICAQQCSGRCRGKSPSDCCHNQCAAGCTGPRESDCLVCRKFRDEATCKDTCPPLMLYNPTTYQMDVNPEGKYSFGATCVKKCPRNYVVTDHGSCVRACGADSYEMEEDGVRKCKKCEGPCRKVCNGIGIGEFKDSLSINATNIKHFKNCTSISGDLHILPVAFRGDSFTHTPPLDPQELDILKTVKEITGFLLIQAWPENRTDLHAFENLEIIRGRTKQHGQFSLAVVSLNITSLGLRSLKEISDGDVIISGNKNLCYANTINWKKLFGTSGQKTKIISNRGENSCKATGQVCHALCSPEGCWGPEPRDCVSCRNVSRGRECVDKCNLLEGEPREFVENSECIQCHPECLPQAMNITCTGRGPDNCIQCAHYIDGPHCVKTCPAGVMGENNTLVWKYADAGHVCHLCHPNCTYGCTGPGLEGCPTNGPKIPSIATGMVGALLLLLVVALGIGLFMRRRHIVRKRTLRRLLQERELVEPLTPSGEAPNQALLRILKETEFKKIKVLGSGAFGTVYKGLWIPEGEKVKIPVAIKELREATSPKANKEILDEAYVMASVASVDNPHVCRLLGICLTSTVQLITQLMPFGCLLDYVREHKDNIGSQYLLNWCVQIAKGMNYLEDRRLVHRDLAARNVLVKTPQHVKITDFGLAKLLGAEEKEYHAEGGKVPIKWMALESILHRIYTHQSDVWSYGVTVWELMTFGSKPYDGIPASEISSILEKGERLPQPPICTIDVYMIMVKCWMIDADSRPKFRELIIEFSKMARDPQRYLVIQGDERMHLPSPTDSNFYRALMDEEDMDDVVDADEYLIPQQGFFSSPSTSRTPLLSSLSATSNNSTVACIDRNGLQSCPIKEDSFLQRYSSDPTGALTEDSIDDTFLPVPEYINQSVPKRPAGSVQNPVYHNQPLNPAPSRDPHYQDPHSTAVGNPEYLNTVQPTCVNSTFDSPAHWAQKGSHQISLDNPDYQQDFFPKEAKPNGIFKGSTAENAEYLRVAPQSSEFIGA
The experiment in a line: Inhibitor activity on EGFR phosphorylation (pEGFR AlphaLISA, 2 h), Ba/F3 EGFR exon 20 ASV Ins. The note with it: EGFR phosphorylation, AlphaLISA, 2 hours; read-out: ASV IC50 (pEGFR). A digest of the protocol: as §3
A general note: In Alpha technology, singlet oxygen from a donor bead excites a nearby acceptor bead.

The target of assay [5] is T5, EGFR exon 20 SVD Ins D770_N771 (Ba/F3 cells) (Homo sapiens, UniProt P00533, INS770SVD).
T5 construct: expressed in transfected cells; host or cells: Ba/F3 (murine pro-B cells), retroviral transduction, puromycin selection, IL3-independent pool
T5 sequence (P00533 with tags, fused parts or gaps INS770SVD): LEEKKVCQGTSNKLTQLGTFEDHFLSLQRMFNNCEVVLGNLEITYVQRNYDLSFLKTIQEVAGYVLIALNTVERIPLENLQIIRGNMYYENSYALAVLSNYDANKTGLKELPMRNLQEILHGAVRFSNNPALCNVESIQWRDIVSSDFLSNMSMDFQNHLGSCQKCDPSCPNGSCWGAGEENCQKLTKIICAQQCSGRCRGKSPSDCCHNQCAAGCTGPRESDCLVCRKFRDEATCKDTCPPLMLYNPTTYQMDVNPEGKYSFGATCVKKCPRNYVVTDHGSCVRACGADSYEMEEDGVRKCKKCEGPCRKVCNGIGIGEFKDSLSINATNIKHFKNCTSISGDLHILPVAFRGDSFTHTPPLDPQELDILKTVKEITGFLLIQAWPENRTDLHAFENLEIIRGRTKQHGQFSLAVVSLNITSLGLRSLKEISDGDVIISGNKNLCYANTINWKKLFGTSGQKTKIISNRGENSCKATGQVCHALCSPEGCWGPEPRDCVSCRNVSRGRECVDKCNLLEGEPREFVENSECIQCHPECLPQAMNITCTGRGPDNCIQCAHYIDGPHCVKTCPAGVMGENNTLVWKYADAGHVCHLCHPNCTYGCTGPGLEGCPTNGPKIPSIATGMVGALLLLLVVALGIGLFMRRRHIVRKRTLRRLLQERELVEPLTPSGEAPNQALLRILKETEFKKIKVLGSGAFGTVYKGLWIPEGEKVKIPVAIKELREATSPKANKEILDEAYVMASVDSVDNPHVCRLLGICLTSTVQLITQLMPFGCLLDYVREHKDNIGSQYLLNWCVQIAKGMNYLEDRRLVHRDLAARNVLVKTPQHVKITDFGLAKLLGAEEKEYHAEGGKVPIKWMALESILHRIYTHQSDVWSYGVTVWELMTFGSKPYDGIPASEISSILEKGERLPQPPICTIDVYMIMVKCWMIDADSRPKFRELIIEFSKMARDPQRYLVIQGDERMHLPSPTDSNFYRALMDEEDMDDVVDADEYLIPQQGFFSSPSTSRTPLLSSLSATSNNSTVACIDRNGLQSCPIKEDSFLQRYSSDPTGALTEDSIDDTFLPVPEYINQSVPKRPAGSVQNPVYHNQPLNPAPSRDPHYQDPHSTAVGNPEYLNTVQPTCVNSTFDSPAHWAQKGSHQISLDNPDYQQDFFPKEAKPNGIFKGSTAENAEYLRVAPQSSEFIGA
The experiment in a line: Inhibitor activity on EGFR phosphorylation (pEGFR AlphaLISA, 2 h), Ba/F3 EGFR exon 20 SVD Ins. The text has this:
Example B. Inhibitor Activity on EGFR phosphorylation (pEGFR)
EGFR mutant Ba/F3 cells were generated by transduction with retrovirus containing vectors expressing EGFR L858R, EGFR exon 19del, EGFR L858R/C797S, EGFR exon 20 NPG Ins D770_N771, EGFR exon 20 ASV Ins V769_D770, or EGFR exon 20 SVD Ins D770_N771 genes along with a puromycin selection marker. Transduced cells are selected with puromycin for 7 days and are then be transferred into culture media without Interleukin 3 (IL3). Surviving cells are confirmed to express EGFR by Western blot and maintained as a pool. CUTO14 cells were obtained from Dr. Robert C. Doebele at the University of Colorado. The IC50 date are included in Table 6 and Table 7.
1.1 Cells are harvested from flask into cell culture medium and the cell number counted.
1.2 Cells are diluted with culture medium to the desired density and 40 μL of cell suspension is added into each well of 384-well cell culture plate and the seeding density is 50K cells/well (Ba/F3) or 12.5K cells/well (CUTO14).
2 Compound Preparation and Treatment
2.1 Test compounds are dissolved to 10 mM in a DMSO stock solution. 45 μL of stock solution is transferred to a 384 polypropylene plate (pp-plate). Perform 3-fold, 10-point dilution via transferring 15 μL compound into 30 μL DMSO using a TECAN (EVO200) liquid handler.
2.2 Spin plates at room temperature at 1,000 RPM for 1 minute.
2.3 Transfer 5 nL of diluted compound from compound source plate into the cell plate.
2.4 After compound treatment for 2 hours, perform pEGFR detection by AlphaLISA for compound treatment plates as described in “Detection” section.
3 Detection by pEGFR AlphaLISA (Perkin-Elmer)
3.1 Plates are removed from incubators and equilibrated at room temperature for 10 minutes, and media was removed
3.2 10 μL of lysis buffer is added and plates shaken at 600 rpm for 1 hr.
3.3 Prepare acceptor mix just before use and dispense 5 μL of acceptor mix to all the wells. Shake 350 rpm for Ihr in the dark
3.4 Prepare donor mix under low light conditions prior to use. Dispense 5 μL of donor mix to all the wells. Mix well on the shaker, seal and wrap in aluminum foil and incubate 1.5 hrs at room temperature in the dark
3.5 Transfer 18.5 μL mixture to OptiPlate 384, and read using an Envision. The IC50 date were included in Table 6 and Table 7.

For a further assay, the target named is EGFR (CUTO14 cells) (Homo sapiens, UniProt P00533). The experiment in a line: Inhibitor activity on EGFR phosphorylation (pEGFR AlphaLISA, 2 h), CUTO14 cells. Summed up:
as §3

In assay [6] the target is T4, EGFR exon 20 ASV Ins V769_D770 (Ba/F3 cells). The experiment in a line: Inhibitor activity on EGFR-dependent cell growth (CellTiter-Glo, 72 h), Ba/F3 EGFR exon 20 ASV Ins. Conditions: read-out: BaF3 ASV IC50. Summed up: as §1
For assay [7], the target named is T5, EGFR exon 20 SVD Ins D770_N771 (Ba/F3 cells). The experiment in a line: Inhibitor activity on EGFR-dependent cell growth (CellTiter-Glo, 72 h), Ba/F3 EGFR exon 20 SVD Ins. The note with it: read-out: BaF3 SVD IC50. A digest of the protocol: as §1
In a further assay the target is T6, EGFR L858R (Ba/F3 cells) (Homo sapiens, UniProt P00533, L858R).
T6 construct: expressed in transfected cells; host or cells: Ba/F3 (murine pro-B cells), retroviral transduction, puromycin selection, IL3-independent pool
The experiment in a line: Inhibitor activity on EGFR-dependent cell growth (CellTiter-Glo, 72 h), Ba/F3 EGFR L858R. Conditions: read-out: BaF3 L858R IC50. A digest of the protocol:
as §2

Assay [8] has as its target EGFR exon 19del (Ba/F3 cells) (Homo sapiens, UniProt P00533). Kind of assay: Inhibitor activity on EGFR-dependent cell growth (CellTiter-Glo, 72 h), Ba/F3 EGFR exon 19del. The note with it: Ba/F3 EGFR exon 19del cell growth, read-out: BaF3 Del19 IC50. Summed up: as §2

pIC50: −log10 of the molar value.

As to `COc1c(Cl)cccc1Nc1c(-c2ccnc(N)n2)[nH]c2c1C(=O)NCC2` [Compound 148, 2-(2-aminopyrimidin-4-yl)-3-((3-chloro-2-methoxyphenyl)amino)-1,5,6,7-tetrahydro-4H-pyrrolo[3,2-c]pyridin-4-one], the pIC50 at EGFR WT (Ba/F3 cells) is 6.00 to 7.00; in assay [1], above 7.00; in assay [2], 6.00 to 7.00; in assay [3] it was above 7.00; in assay [4], above 7.00; in assay [5], above 7.00. The same compound had a pIC50 on EGFR (CUTO14 cells) above 7.00.

As to `C=CC(=O)N1CCC2(CC1)CNC(=O)c1c2[nH]c(-c2ccnc3ccc(OC)nc23)c1Nc1cccc(F)c1OC` [Compound 160, 1-acryloyl-3′-((3-fluoro-2-methoxyphenyl)amino)-2′-(6-methoxy-1,5-naphthyridin-4-yl)-5′,6′-dihydrospiro[piperidine-4,7′-pyrrolo[3,2-c]pyridin]-4′(1′H)-one], the pIC50 in [1], in assay [6], in assay [7], in assay [2], in assay [3] and in assay [4] was above 7.00 in each case. The pIC50 (in assay [5]; at EGFR (CUTO14 cells)) was above 7.00 each time.

For the compound `COc1c(Cl)cccc1Nc1c(-c2ccnc(N)n2)[nH]c2c1C(=O)NC[C@H]2C[C@@H]1COCCO1` [Compound 567, (7R)-2-(2-aminopyrimidin-4-yl)-3-[(3-chloro-2-methoxyphenyl)amino]-7-[(2R)-1,4-dioxan-2-ylmethyl]-1H,5H,6H,7H-pyrrolo[3,2-c]pyridin-4-one], the pIC50 was above 7.00 on EGFR L858R (Ba/F3 cells); above 7.00 in [8]; 6.00 to 7.00 on EGFR WT (Ba/F3 cells); above 7.00 in assay [1]; above 7.00 in [6]; above 7.00 in [7]. Moreover, the pIC50 (in assay [2]; in assay [3]; in assay [4]; in assay [5]; against EGFR (CUTO14 cells)) was above 7.00 throughout.

Consider `COCC[C@@H]1CNC(=O)c2c1[nH]c(-c1ccnc(N)n1)c2Nc1cccc(Cl)c1OC` [Compound 726, (7R)-2-(2-aminopyrimidin-4-yl)-3-[(3-chloro-2-methoxyphenyl)amino]-7-(2-methoxyethyl)-1H,5H,6H,7H-pyrrolo[3,2-c]pyridin-4 one], for which the pIC50 (at EGFR WT (Ba/F3 cells); in assay [1]; in assay [6]; in [7]; in assay [2]; in assay [3]) was above 7.00 throughout. Moreover, the negative-log IC50 (pIC50) (in assay [4]; in assay [5]; at EGFR (CUTO14 cells)) was above 7.00 each time.

Take `COc1ncc2nccc(-c3[nH]c4c(c3Nc3cccc(Cl)c3OC)C(=O)NCC4)c2n1` [compound 408]: the negative logarithm of the IC50 (pIC50) (at EGFR WT (Ba/F3 cells); in [1]; in assay [6]; in assay [7]; in assay [2]; in [3]) was above 7.00 each time. For the same compound, the negative logarithm of the IC50 (pIC50) (in [4]; in [5]; on EGFR (CUTO14 cells)) was above 7.00 throughout.

`COc1c(Cl)cccc1Nc1c(-c2ccnc(Nc3cnnn3C)n2)[nH]c2c1C(=O)NCC2` [compound 512, 3-[(3-chloro-2-methoxyphenyl)amino]-2-{2-[(3-methyl-1,2,3-triazol-4-yl)amino]pyrimidin-4-yl}-1H,5H,6H,7H-pyrrolo[3,2-c]pyridin-4-one]: the pIC50 was 6.00 to 7.00 on EGFR WT (Ba/F3 cells); above 7.00 in assay [1]; above 7.00 in [6]; above 7.00 in assay [7]; above 7.00 in assay [2]; above 7.00 in [3]. In addition, the pIC50 (in [4]; in assay [5]; at EGFR (CUTO14 cells)) was above 7.00 throughout.

With `COc1c(Cl)cccc1Nc1c(-c2ccnc(Nc3cnn(CC(F)F)c3)n2)[nH]c2c1C(=O)NCC2` [compound 514, 3-[(3-chloro-2-methoxyphenyl)amino]-2-(2-{[1-(2,2-difluoroethyl)pyrazol-4-yl]amino}pyrimidin-4-yl)-1H,5H,6H,7H-pyrrolo[3,2-c]pyridin-4-one], the pIC50 is above 7.00 at EGFR WT (Ba/F3 cells); 6.00 to 7.00 in assay [1]; above 7.00 in [6]; above 7.00 in assay [7]; above 7.00 in assay [2]; above 7.00 in assay [3]. Besides, the negative-log IC50 (pIC50) was above 7.00 in [4], above 7.00 in assay [5] and 6.00 to 7.00 against EGFR (CUTO14 cells).

On to `COc1c(Cl)cccc1Nc1c(-c2ccnc(Nc3ccn(CC(F)F)n3)n2)[nH]c2c1C(=O)NCC2` [compound 515, 3-[(3-chloro-2-methoxyphenyl)amino]-2-(2-{[1-(2,2-difluoroethyl)pyrazol-3-yl]amino}pyrimidin-4-yl)-1H,5H,6H,7H-pyrrolo[3,2-c]pyridin-4-one], for which the pIC50 (at EGFR L858R (Ba/F3 cells); in assay [8]; on EGFR WT (Ba/F3 cells); in [1]; in [6]; in assay [7]) was above 7.00 throughout. The negative-log IC50 (pIC50) (in assay [2]; in assay [3]; in assay [4]; in [5]; against EGFR (CUTO14 cells)) was above 7.00 throughout.

In the case of `COc1c(Cl)cccc1Nc1c(-c2ccnc3c(N)noc23)[nH]c2c1C(=O)NCC2` [compound 524, 2-{3-amino-[1,2]oxazolo[4,5-b]pyridin-7-yl}-3-[(3-chloro-2-methoxyphenyl)amino]-1H,5H,6H,7H-pyrrolo[3,2-c]pyridin-4-one], the pIC50 was 6.00 to 7.00 on EGFR WT (Ba/F3 cells); above 7.00 in [1]; above 7.00 in assay [6]; above 7.00 in assay [7]; above 7.00 in [3]; above 7.00 in [4]. Also, the negative-log IC50 (pIC50) (in [5]; at EGFR (CUTO14 cells)) was above 7.00 throughout.
